Laboratory results from patent US10647713B2 (Nimbus Lakshmi, Inc., priority 2016, dated 2020).

Molecular target: human TYK2 (JH2domain-pseudokinase) (Homo sapiens (Human), UniProt P29597)
Assay: TYK2 JH2 Domain Binding Assay (KINOMEscan, DiscoveRx)
Settings: 11-point dilution, duplicate
Outline: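 TYK2 JH2 (G556–D888)–NFkB DBD fusion, DNA-tagged, from HEK293 extracts (<0.1 nM) competed against immobilised biotinylated ligand for 1 h at room temperature, 0.9% DMSO. Bead-retained kinase quantified by qPCR; Kd from 11-point 3-fold series (top 30,000 nM, duplicate), Hill fit with slope −1.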

human TYK2 (JH2domain-pseudokinase), sequence (P29597 556-888): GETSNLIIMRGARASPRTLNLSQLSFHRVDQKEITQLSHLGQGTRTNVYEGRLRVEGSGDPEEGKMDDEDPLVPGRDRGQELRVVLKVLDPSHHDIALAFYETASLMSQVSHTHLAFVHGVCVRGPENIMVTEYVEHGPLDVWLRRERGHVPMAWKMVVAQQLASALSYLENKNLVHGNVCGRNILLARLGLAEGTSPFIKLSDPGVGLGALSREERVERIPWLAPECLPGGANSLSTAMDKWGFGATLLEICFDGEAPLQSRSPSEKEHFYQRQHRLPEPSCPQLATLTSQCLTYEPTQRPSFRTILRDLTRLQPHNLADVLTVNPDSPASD

First: Cn1ccc(-c2ccc(Nc3cc(NC(=O)C4CC4)nc4[nH]c(C(F)F)nc34)c(P(C)(C)=O)c2)n1 [I-429, N-(2-(difluoromethyl)-7-((2-(dimethylphosphoryl)-4-(1-methyl-1H-pyrazol-3-yl)phenyl)amino)-3H-imidazo[4,5-b]pyridin-5-yl)cyclopropanecarboxamide]
Second: Cc1nc2c(Nc3ccc(-c4ccn(C)n4)cc3P(C)(C)=O)cc(NC(=O)C3CC3)nc2[nH]1 [I-430, N-(7-((2-(dimethylphosphoryl)-4-(1-methyl-1H-pyrazol-3-yl)phenyl)amino)-2-methyl-3H-imidazo[4,5-b]pyridin-5-yl)cyclopropanecarboxamide]
The Kd of the first is lower: < 0.1 nM for the first, 0.1 to 0.5 nM for the second.

Compared with Cc1nc2c(Nc3ccc(C4CCOCC4)cc3P(C)(C)=O)cc(NC(=O)C3CC3)nc2[nH]1 [I-431, N-(7-((2-(dimethylphosphoryl)-4-(tetrahydro-2H-pyran-4-yl)phenyl)amino)-2-methyl-3H-imidazo[4,5-b]pyridin-5-yl)cyclopropanecarboxamide], Cc1nc2c(Nc3ccc(C4CCC4)cc3P(C)(C)=O)cc(NC(=O)C3CC3)nc2[nH]1 [I-445, N-(7-((4-cyclobutyl-2-(dimethylphosphoryl)phenyl)amino)-2-methyl-3H-imidazo[4,5-b]pyridin-5-yl)cyclopropanecarboxamide] is lower in Kd: 0.5 to 1 nM for the first, 0.1 to 0.5 nM for the second.

Compared with CS(=O)(=O)c1cc(C2CCC2)ccc1Nc1cc(NC(=O)[C@H]2C[C@H]2F)nc2[nH]c(C(F)F)nc12 [I-432, (1R,2R)—N-(7-((4-cyclobutyl-2-(methylsulfonyl)phenyl)amino)-2-(difluoromethyl)-3H-imidazo[4,5-b]pyridin-5-yl)-2-fluorocyclopropane-1-carboxamide], CS(=O)(=O)c1cc(C2CCC2)ccc1Nc1cc(NC(=O)[C@@H]2C[C@@H]2F)nc2[nH]c(C(F)F)nc12 [I-433, (1S, 2S)—N-(7-((4-cyclobutyl-2-(methylsulfonyl)phenyl)amino)-2-(difluoromethyl)-3H-imidazo[4,5-b]pyridin-5-yl)-2-fluorocyclopropane-1-carboxamide] is lower in Kd: 1 to 10 nM for the first, 0.1 to 0.5 nM for the second. The second binds more tightly here.

Cc1cc(Nc2cc(Nc3ccc(C4CC4)cc3S(C)(=O)=O)c3nc(C)[nH]c3n2)nc(C)n1 [I-434, N7-(4-cyclopropyl-2-(methylsulfonyl)phenyl)-N5-(2,6-dimethylpyrimidin-4-yl)-2-methyl-3H-imidazo[4,5-b]pyridine-5,7-diamine] and Cc1nc2c(Nc3ccc(C4CC4)cc3S(C)(=O)=O)cc(Nc3cnc(C)c(C)n3)nc2[nH]1 [I-435, N7-(4-cyclopropyl-2-(methylsulfonyl)phenyl)-N5-(5,6-dimethylpyrazin-2-yl)-2-methyl-3H-imidazo[4,5-b]pyridine-5,7-diamine] fall in the same range of Kd: 0.1 to 0.5 nM for the first, 0.1 to 0.5 nM for the second.

Compared with CS(=O)(=O)c1cc(C2CC2)ccc1Nc1cc(Nc2cc3n(n2)CCOC3)nc2[nH]c(C(F)F)nc12 [I-436, N7-(4-cyclopropyl-2-(methylsulfonyl)phenyl)-2-(difluoromethyl)-N5-(6,7-dihydro-4H-pyrazolo[5,1-c][1,4]oxazin-2-yl)-3H-imidazo[4,5-b]pyridine-5,7-diamine], Cc1nc2c(Nc3ccc(C4CC4)cc3S(C)(=O)=O)cc(Nc3cc4n(n3)CCOC4)nc2[nH]1 [I-437, N7-(4-cyclopropyl-2-(methylsulfonyl)phenyl)-N5-(6,7-dihydro-4H-pyrazolo[5,1-c][1,4]oxazin-2-yl)-2-methyl-3H-imidazo[4,5-b]pyridine-5,7-diamine] is lower in Kd: 0.1 to 0.5 nM for the first, < 0.1 nM for the second.

CS(=O)(=O)c1cc([C@@H]2CCCOC2)ccc1Nc1cc(NC(=O)[C@@H]2CC2(F)F)nc2[nH]c(C(F)F)nc12 [I-438, (S)—N-(2-(difluoromethyl)-7-((2-(methylsulfonyl)-4-((S)-tetrahydro-2H-pyran-3-yl)phenyl)amino)-3H-imidazo[4,5-b]pyridin-5-yl)-2,2-difluorocyclopropane-1-carboxamide] and CS(=O)(=O)c1cc([C@@H]2CCCOC2)ccc1Nc1cc(NC(=O)[C@H]2CC2(F)F)nc2[nH]c(C(F)F)nc12 [I-439, (R)—N-(2-(difluoromethyl)-7-((2-(methylsulfonyl)-4-((S)-tetrahydro-2H-pyran-3-yl)phenyl)amino)-3H-imidazo[4,5-b]pyridin-5-yl)-2,2-difluorocyclopropane-1-carboxamide] fall in the same range of Kd: 1 to 10 nM for the first, 1 to 10 nM for the second.

COc1c(Nc2cc(NC(=O)[C@H]3C[C@H]3F)nc3[nH]c(C(F)F)nc23)cccc1-c1ncn(C)n1 [I-440, (1R,2R)—N-(2-(difluoromethyl)-7-((2-methoxy-3-(1-methyl-1H-1,2,4-triazol-3-yl)phenyl)amino)-3H-imidazo[4,5-b]pyridin-5-yl)-2-fluorocyclopropane-1-carboxamide] and Cc1cnc(-c2ccc(Nc3cc(NC(=O)C4CC4)nc4[nH]c(C(F)F)nc34)c(S(C)(=O)=O)c2)n1C [I-451, N-(2-(difluoromethyl)-7-((4-(1,5-dimethyl-1H-imidazol-2-yl)-2-(methylsulfonyl)phenyl)amino)-3H-imidazo[4,5-b]pyridin-5-yl)cyclopropaneCarboxamide] fall in the same range of Kd: 0.1 to 0.5 nM for the first, 0.1 to 0.5 nM for the second.

First: Cc1nc2c(Nc3ccccc3[S@+](C)[O-])cc(NC(=O)C3CC3)nc2[nH]1 [I-441, (S)—N-(2-methyl-7-((2-(methylsulfinyl)phenyl)amino)-3H-imidazo[4,5-b]pyridin-5-yl)cyclopropanecarboxamide]
Second: Cc1nc2c(Nc3ccccc3[S@@+](C)[O-])cc(NC(=O)C3CC3)nc2[nH]1 [I-442, (R)—N-(2-methyl-7-((2-(methylsulfinyl)phenyl)amino)-3H-imidazo[4,5-b]pyridin-5-yl)cyclopropanecarboxamide]
The Kd of the first is lower: 1 to 10 nM for the first, > 10 nM for the second.

Cc1nc2c(Nc3ccc(F)cc3S(C)(=O)=O)cc(NC(=O)C3CC3)nc2[nH]1 [I-443, N-(7-((4-fluoro-2-(methylsulfonyl)phenyl)amino)-2-methyl-3H-imidazo[4,5-b]pyridin-5-yl)cyclopropanecarboxamide] and Cc1nc2c(Nc3ccc(-c4c(C)nn(C)c4C)cc3S(C)(=O)=O)cc(NC(=O)C3CC3)nc2[nH]1 [I-447, N-(2-methyl-7-((2-(methylsulfonyl)-4-(1,3,5-trimethyl-1H-pyrazol-4-yl)phenyl)amino)-3H-imidazo[4,5-b]pyridin-5-yl)cyclopropanecarboxamide] fall in the same range of Kd: 0.1 to 0.5 nM for the first, 0.1 to 0.5 nM for the second.

First: CP(C)(=O)c1cc(C2CCC2)ccc1Nc1cc(NC(=O)C2CC2)nc2[nH]c(C(F)F)nc12 [I-444, N-(7-((4-cyclobutyl-2-(dimethylphosphoryl)phenyl)amino)-2-(difluoromethyl)-3H-imidazo[4,5-b]pyridin-5-yl)cyclopropane carboxamide]
Second: CS(=O)(=O)c1cc([C@@H]2CCOC2)ccc1Nc1cc(NC(=O)C2CC2)nc2[nH]c(C(F)F)nc12 [I-452, (S)—N-(2-(difluoromethyl)-7-((2-(methylsulfonyl)-4-(tetrahydrofuran-3-yl)phenyl)amino)-3H-imidazo[4,5-b]pyridin-5-yl)cyclopropanecarboxamide]
The Kd of the first is lower: 0.1 to 0.5 nM for the first, 0.5 to 1 nM for the second.

Cc1nn(C)c(C)c1-c1ccc(Nc2cc(NC(=O)C3CC3)nc3[nH]c(C(F)F)nc23)c(S(C)(=O)=O)c1 [I-446, N-(2-(difluoromethyl)-7-((2-(methylsulfonyl)-4-(1,3,5-trimethyl-1H-pyrazol-4-yl)phenyl)amino)-3H-imidazo[4,5-b]pyridin-5-yl)cyclopropanecarboxamide] and Cc1cn(C)c(-c2ccc(Nc3cc(NC(=O)C4CC4)nc4[nH]c(C(F)F)nc34)c(S(C)(=O)=O)c2)n1 [I-450, N-(2-(difluoromethyl)-7-((4-(1,4-dimethyl-1H-imidazol-2-yl)-2-(methylsulfonyl)phenyl)amino)-3H-imidazo[4,5-b]pyridin-5-yl)cyclopropanecarboxamide] fall in the same range of Kd: 0.1 to 0.5 nM for the first, 0.1 to 0.5 nM for the second.

[2H]C([2H])([2H])S(=O)(=O)N(C)c1ccccc1Nc1cc(Nc2cc(C)nc(C)n2)nc2[nH]c(C(F)F)nc12 [I-448, N-(2-((2-(difluoromethyl)-5-((2,6-dimethylpyrimidin-4-yl)amino)-3H-imidazo[4,5-b]pyridin-7-yl)amino)phenyl)-N-methylmethanesulfonamide-d3] and [2H]C([2H])([2H])N(c1ccccc1Nc1cc(Nc2cc(C)nc(C)n2)nc2[nH]c(C(F)F)nc12)S(=O)(=O)C([2H])([2H])[2H] [I-457, N-(2-((2-(difluoromethyl)-5-((2,6-dimethylpyrimidin-4-yl)amino)-3H-imidazo[4,5-b]pyridin-7-yl)amino)phenyl)-N-(methyl-d3)methanesulfonamide-d3] fall in the same range of Kd: 0.1 to 0.5 nM for the first, 0.1 to 0.5 nM for the second.

Cc1nc2c(Nc3ccc(-c4nn(C)cc4C)cc3S(C)(=O)=O)cc(Nc3cnc(C)c(C)n3)nc2[nH]1 [I-449, N7-(4-(1,4-dimethyl-1H-pyrazol-3-yl)-2-(methylsulfonyl)phenyl)-N5-(5,6-dimethylpyrazin-2-yl)-2-methyl-3H-imidazo[4,5-b]pyridine-5,7-diamine] and [2H]C([2H])([2H])S(=O)(=O)N(C)c1ccccc1Nc1cc(Nc2cc(C)nc(C)n2)nc2[nH]c(C)nc12 [I-456, N-(2-((5-((2,6-dimethylpyrimidin-4-yl)amino)-2-methyl-3H-imidazo[4,5-b]pyridin-7-yl)amino)phenyl)-N-methylmethanesulfonamide-d3] fall in the same range of Kd: 0.1 to 0.5 nM for the first, 0.1 to 0.5 nM for the second.

First: CS(=O)(=O)c1cc([C@H]2CCOC2)ccc1Nc1cc(NC(=O)C2CC2)nc2[nH]c(C(F)F)nc12 [I-453, (R)—N-(2-(difluoromethyl)-7-((2-(methylsulfonyl)-4-(tetrahydrofuran-3-yl)phenyl)amino)-3H-imidazo[4,5-b]pyridin-5-yl)cyclopropanecarboxamide]
Second: CO[C@H](C)c1ccc(Nc2cc(NC(=O)C3CC3)nc3[nH]c(C(F)F)nc23)c(S(C)(=O)=O)c1 [I-454, (R)—N-(2-(difluoromethyl)-7-((4-(1-methoxyethyl)-2-(methylsulfonyl)phenyl)amino)-3H-imidazo[4,5-b]pyridin-5-yl)cyclopropanecarboxamide]
The Kd of the first is lower: 0.1 to 0.5 nM for the first, 0.5 to 1 nM for the second. The first binds more tightly here.

CO[C@@H](C)c1ccc(Nc2cc(NC(=O)C3CC3)nc3[nH]c(C(F)F)nc23)c(S(C)(=O)=O)c1 [I-455, (S)—N-(2-(difluoromethyl)-7-((4-(1-methoxyethyl)-2-(methylsulfonyl)phenyl)amino)-3H-imidazo[4,5-b]pyridin-5-yl)cyclopropanecarboxamide] gave a Kd of 1 to 10 nM.
